The text below walks through data of patent US5840690A, “Regulation of cell proliferation and differentation using peptides” (priority 1995, dated 1998).

Assay [1] deals with cultured human keratinocytes. As to the kind of experiment: Keratinocyte culture: counts of total cells, basal cells and cornified envelopes. The format is cell-based. How it is done: Keratinocytes were grown in culture as follows. NIH 3T3 cells were plated at 0.5×10^5 cells per 35-mm tissue-culture dish, and two days later were lethally irradiated with a cobalt-60 source (5000 rads). Keratinocytes were obtained from neonatal foreskin after overnight trypsinization at 4° C. and treatment with 0.02% EDTA. Keratinocytes were plated in 2 ml of serum-free medium per dish on the lethally irradiated 3T3 cells. Each experiment was performed on primary or secondary keratinocyte cultures obtained from different skin samples.
In addition, 1,25-(OH)2 D3 was tested, alone and in combination with PTH (7-34), and PTH (1-34) and PTH (7-34) were tested together.
Beginning at one week in culture, groups of triplicate plates of keratinocytes were incubated with the aforementioned compounds or vehicle alone. After one week of dosing, the medium was removed from each culture and centrifuged, and the pellet was resuspended for the counting of the desquamated floater cells. A hemacytometer was used to count the different cell types under a phase-contrast microscope. The attached cells were then trypsinized for 30-40 min with 0.1 EDTA and 0.1% trypsin and then neutralized with medium. The keratinocytes were pelleted and resuspended in a known volume of medium. Duplicate aliquots were taken for counting the basal (small, rounded) and squamous (larger, irregular-shaped, flattened) cells. The remaining cells were pelleted and treated with 10 mM Tris-HCl (pH 7.4) with 1% beta-mercaptoethanol and 1% sodium dodecyl sulfate (SDS) at room temperature for 10 min. Only cells with cornified envelopes were present after this treatment.
Each culture was thus evaluated for its total cell content, number of basal cells, and cornified envelopes, as described above.

The subject of assay [2] is tumor cells (for example, HL-60, U937, and M-1). The conditions noted are these: tumor cells that possess a receptor for 1,25(OH)2 D3; cited from earlier work.
The test system of assay [3] is cultured human fibroblasts. The conditions noted are these: cited from earlier work.
The test system of assay [4] is cultured human keratinocytes. The following applies: cited from earlier work.
In another assay the test system is psoriasis. The conditions noted are these: provided either orally or topically; cited from earlier work.
Assay [5] relates to wounds made through the skin with a 6 mm dermal biopsy punch. The assay can be described thus: In vivo skin punch assay. On the set-up: species or system Sprague-Dawley rats. The conditions noted are these: rats, 2.0 μg topically in normal saline, immediately after biopsy and each day for 3 days, FIG. 8. On the procedure: Male Sprague-Dawley rats were anesthetized by intraperitoneal injection of sodium pentobarbital, their dorsal skin shaved, and wounds made through the skin with a 6 mm dermal biopsy punch. Immediately after the biopsy, and each subsequent day for 3 days, groups of rats received topically 2.0 μg of human PTH (1-34) in normal saline or human PTH (7-34) in normal saline; a control group received normal saline without peptide. Four rats from each group were killed by asphyxiation in a chamber of carbon dioxide, and the extent of wound healing was evaluated as follows. Wounds were photographed with the wound surface perpendicular to the axis of the lens. After development of the film, wound images were projected on to paper at a fixed distance, traced with a pencil, and cut out with sharp scissors. The relative sizes of the wounds were assessed by weighing the cut-out paper tracings. Percent healing was calculated from the average decrease in wound area for each group.

The test system of assay [6] is hair obtained from human subjects. As to the kind of experiment: In vitro hair growth assay. The format is cell-based. From the text:
Candidate peptides may be screened for their ability to stimulate hair growth as follows. […] Hair is sampled from 4 sites of the scalp (frontal, occipital, temporal, and nuchal) and the following body areas: beard, axilla, pubic, chest, forearm, and leg, using the method described by van Scott et al. (J. Invest. Derm. 29: 197, 1957). Immediately after plucking, the hairs are placed in chilled Krebs-Ringer phosphate buffer, pH 7.4. Growing (anagen) and resting (telogen) hairs are differentiated either by gross examination or under low microscopic magnification. Generally, 2 to 4 anagen hairs and 10 to 30 telogen hairs are incubated in duplicate, in 2 ml. centrifuge tubes, in a total volume of 1 ml of incubation mixture consisting of Krebs-Ringer phosphate buffer, pH 7.4, glucose (9 mM), and candidate peptide; control incubation mixture lacks peptide. Samples are incubated with shaking at 37° C. in an air atmosphere. […]
DNA content is determined by the method of Kissane and Robins (J. Biol. Chem. 233: 184, 1958) as modified by Santoianni and Ayala (J. Invest. Derm. 45: 99, 1965). […] Fluorescence is asssayed on an Aminco-Bowman Spectrofluorometer with the excitation wavelength set at 396 nm and the emission wavelength at […]. […] Routinely, standards containing 0.1, 0.4, 0.8, 1.2, 1.6, and 3.2 μg of DNA, and a blank are read with the samples.

On to `C=C1/C(=C\C=C2/CCC[C@]3(C)[C@@H]([C@H](C)CCCC(C)(C)O)CC[C@@H]23)C[C@@H](O)C[C@@H]1O` [1,25(OH)2 D3, 1,25-dihydroxyvitamin D3], for which, in assay [1] (1,25(OH)2 D3 alone, one week of dosing, FIGS. 2-5), the “total number of cells and number of basal cells” value is listed as “decreased in a dose-dependent manner”. The “total number of cornified envelopes, percent of control” value in assay [1] (compound alone, FIGS. 6 and 7) is “increased, in a dose-dependent manner”. For the same molecule, in assay [2], the “differentiation of tumor cells” value is reported as “induces them to differentiate” and the “proliferation of tumor cells” value is reported as “inhibits their proliferation”. In addition, the “proliferation of cultured human fibroblasts” value in assay [3] is given as “inhibits the proliferation”. In assay [4], the “proliferation of cultured human keratinocytes” value was “inhibits the proliferation” and the “terminal differentiation of keratinocytes” value is on record as “induces keratinocytes to terminally differentiate”. Moreover, the “value in the treatment of psoriasis” value in the assay on psoriasis was “of value in the treatment of psoriasis”.

On to “human PTH (7-34): human PTH (7-34), applied topically in normal saline in the skin punch assay; stimulates hair growth in vitro (LMHNLGKHLNSMERVEWLRKKLQDVHNF; Parathyroid hormone; UniProt P01270 38-65, looked up, fragment)”, for which the “wound healing (percent healing from decrease in wound area)” value in assay [5] is listed as “enhance wound healing”. In addition, the “hair growth in vitro” value in assay [6] is recorded as “stimulates hair growth”.
